# Test results: the METLIN SMRT retention time set (Domingo-Almenara et al. 2019)
# Assay: gradient 5% acetonitrile 3 min, to 50% in 2 min, to 85% in 15 min, held 3 min, 100 µL/min
# Conditions: column: Zorbax Extend-C18 2.1 x 50 mm; eluents: water / acetonitrile, 0.1% formic acid
# Summary of the method: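 Each retention time is based on an adduct peak selected computationally and verified by manual inspection. Measurements used HPLC–quadrupole time-of-flight mass spectrometry in positive and negative ionization mode on mixtures of ~100 pure standards. Chromatography ran on a Zorbax Extend-C18 column (2.1 × 50 mm, 1.8 μm) at 100 μL/min with water and acetonitrile, each containing 0.1% formic acid, and dead and dwell volumes of 40 μL and 900 μL.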
row,RP-LC retention time [s],SMILES
1,951,COc1ccc(NC(=O)c2nnc(C(=O)NCCc3c[nH]c4ccc(OC)cc34)s2)cc1
2,950,O=c1c2nnc3c(-c4ccc(F)cc4)cnn3c2ccn1CCc1c[nH]c2ccc(F)cc12
3,818,Cc1noc(COC2CCN(C(=O)c3ccccc3F)CC2)n1
4,654,CC1CCN(c2ncc3c(n2)CCC(C(=O)NCCN2CCc4ccccc4C2)C3)CC1 (centres undefined)
5,827,COC(=O)c1cc(OCC(=O)NCc2ccc3c(c2)OCO3)c2cc(Cl)ccc2n1
6,898,O=C(Cc1ccccc1)NCc1nc(-c2cccc(-c3ccn[nH]3)c2)no1
7,972,Cc1cc(C)cc(NC(=O)c2cn(-c3cc(N4CCCC4)ncn3)cn2)c1
8,900,CCCN1C(=O)COc2ccc(-c3noc(C(C)NC(=O)c4ccccc4)n3)cc21 (centres undefined)
9,864,Cc1nc(-c2ccc(N3CCN(C(=O)c4n[nH]c5ccccc45)CC3)nc2)sc1C
10,729,Cc1cc(C)cc(NC(=O)Cc2nnc(-c3cnccn3)o2)c1
11,966,CCCCS(=O)(=O)c1cc2c(cc1NC(=O)c1cccc(F)c1)n(C)c(=O)n2C
12,978,CCOc1ccccc1NC(=O)c1cnc(-c2ccccc2)nc1-c1ccncc1
13,934,O=C(NCc1ccc(F)c(Cl)c1)C1=C2CCCN2c2ccc(F)cc2S1(=O)=O
14,668,CCCC(NC(=O)c1cccs1)C(=O)Nc1nc2ccccc2[nH]1 (centres undefined)
15,856,O=C(Nc1ccc(Cl)cc1F)C1CCc2nc(N3CCOCC3)ncc2C1 (centres undefined)
16,929,CCC(CC)C(=O)Nc1nc(-c2ccc3c(c2)N(C)C(=O)CO3)cs1
17,915,COc1ccc(N2CCN(c3nc(C(=O)NCC4CC4)cs3)CC2)cc1
18,831,CCC(Oc1ccc(=O)n(-c2ccc(F)cc2)n1)C(=O)NCc1ccc(C)o1 (centres undefined)
19,665,CCC(=O)NC(C)c1nc(-c2ccccc2OC)no1 (centres undefined)
20,621,CCCNC(=O)C1CCN(c2ccc(SCC(=O)NCc3ccc(OC)cc3)nn2)CC1
21,1010,COc1ccc(NC(=O)Nc2nccn(-c3ccc(C(C)C)cc3)c2=O)cc1OC
22,691,Cc1nn(CC(=O)NCCCN2CC(C)CC(C)C2)c(=O)c2c1sc1ccccc12 (centres undefined)

row,RP-LC retention time [s],SMILES
1,946,COc1ccc(Cn2nc3c(S(=O)(=O)N4CCc5ccccc5C4)cccn3c2=O)cc1
2,582,Cc1onc(-c2ccccn2)c1C(=O)NCCCN1CCN(C2CCCCC2)CC1
3,635,O=C(C1CCCO1)N1CCC(OCc2nc(C3CC3)no2)CC1 (centres undefined)
4,1050,COC(=O)c1[nH]c(C)c(C(=O)C(C)N(CC2CCCCC2)C(=O)c2ccccc2)c1C (centres undefined)
5,710,CCC(=O)NCc1csc(C2CCCN(C(=O)COc3ccccc3)C2)n1 (centres undefined)
6,644,Cc1cc2n(n1)CCC(=O)N2CCCC(=O)NCc1ccc(C)o1
7,1030,Cc1oc(C2CCC2)nc1C(=O)NCc1cc(F)ccc1F
8,957,CC(=O)N1c2ccc(S(=O)(=O)N3CCCCCC3)cc2CC1C(=O)NCCc1ccc(C)cc1 (centres undefined)
9,896,CCCn1ccc2sc(C)c(C(=O)NCc3ccccc3OC)c2c1=O
10,736,CCN1CCn2cc(S(=O)(=O)Nc3cccc(C)c3)cc2C1=O
11,710,CCc1nn2c(CNC(=O)c3ccc(F)c(Cl)c3)c(C)nc2s1
12,884,CCN(CC)C(=O)c1cc(C)nc2c1c(=O)n(Cc1ccccc1)c(=O)n2C
13,568,Cc1oc2ncn(CC(C)C)c(=O)c2c1C(=O)N1CCN(c2ccccn2)CC1
14,554,Cc1ccc(NC(=O)N2CCC3(C2)c2nc[nH]c2CCN3C)cc1 (centres undefined)
15,652,CCCC(=O)Nc1cnc(N2CCNCC2)c(C(=O)N(CC(C)C)CC(C)C)c1
16,592,COCCCNC(=O)CCc1c(-c2ccc(F)cc2)nc2ccccn12
17,651,COc1ccc(-c2cc(C)no2)cc1S(=O)(=O)N1CCN(c2ccccn2)CC1
18,770,O=C(NCc1ccccc1F)c1ccc(CN2CCN(Cc3ccccc3)C(=O)C2=O)cc1
19,769,Cc1csc(-c2cc(S(=O)(=O)NCCc3ccc(S(N)(=O)=O)cc3)c(C)n2C)n1
20,622,Cc1nc2nc(SCC(=O)NCCCN3CCOCC3)nn2c(C)c1Cc1ccccc1
21,668,CCOC(=O)C1=C(CN2CCN(c3ccccn3)CC2)NC(=O)NC1c1ccc(OC(C)C)cc1 (centres undefined)
22,766,O=C(Cn1c(=O)c2cc(C3CC3)nn2c2ncccc21)NCc1ccccc1Cl

row,RP-LC retention time [s],SMILES
1,1020,CCOC(=O)C(C)c1c(C(=O)c2ccc(C)nc2)c2ccccc2n1C (centres undefined)
2,1120,O=C(NC1CCCCCCC1)C1CCN(S(=O)(=O)c2ccc(-c3noc(C4CC4)n3)cc2)CC1
3,769,O=C(CCSc1ccccc1)Nc1cccc(-c2ccn[nH]2)c1
4,582,Cc1noc(C)c1CN1CCC(NC(=O)Cc2ccc(F)cc2)CC1
5,735,Cc1cnc(C(=O)N[C@@H]2CCC[C@@H]2C(=O)NC2CCCCCC2)cn1
6,829,O=C1NC2(CCN(C(=O)Nc3ccc(Cl)cc3)CC2)N=C1c1ccccc1
7,677,Cc1nn(C)c(C)c1CCNC(=O)Nc1cccc(Br)c1
8,796,CC(CNC(=O)c1nc(Cn2c(=O)oc3ccc(Cl)cc32)no1)c1ccccc1 (centres undefined)
9,613,O=C(c1ccc(-n2c(-c3ccccc3)nc3cccnc32)cc1)N1CCN(c2ccccn2)CC1
10,840,O=C(NCC(O)C1CCCCC1)c1cccc(C(F)(F)F)c1 (centres undefined)
11,794,CCOc1ccccc1C(=O)N(C)CC1(C)CCOCC1
12,1130,CCOC(=O)C1CCN(S(=O)(=O)c2ccc(Cl)c(-c3nnc(-c4ccccc4)o3)c2)CC1
13,1090,COC(=O)c1ccc(NC(=O)c2sc(-c3cn(C(C)C)c4ncccc34)nc2C)cc1
14,666,Cc1cc(-c2nnc(-c3ccccc3)o2)c(C)n1CC(=O)N1CCN(C2CCCCC2)CC1
15,674,O=C(NCC(c1cccnc1)c1c[nH]c2ccccc12)Nc1ccc(F)cc1F (centres undefined)
16,649,OCCNCc1ccc(-c2cccc(C(F)(F)F)c2)o1
17,678,O=C(NCc1ccccc1F)c1nc(N2CCOCC2)c2ccccc2n1
18,643,CCC(C)NC(=O)Cn1cnc2nc(N3CCCC(C(=O)NC(C)C)C3)sc2c1=O (centres undefined)
19,597,O=C1CCCc2cc(S(=O)(=O)Nc3ccc(CN4CCCCC4)cc3)ccc2N1
20,598,CCOC(=O)c1[nH]c(C)c(C(=O)N2CCC(CC(=O)N3CCN(C4CCCCC4)CC3)CC2)c1C
21,600,O=C(Nc1ccccc1Cl)N1CCN(c2cc(-c3ccncc3)[nH]n2)CC1
22,737,CC(C)c1cnc2c(c1SCc1ccccn1)c(=O)n(C)c(=O)n2C

row,RP-LC retention time [s],SMILES
1,601,CC1CCN(Cc2nnc(-c3ccccc3)o2)CC1
2,683,Cc1c(C2CCN(C(=O)NCc3ccc(F)cc3)CC2)noc1N
3,996,Cc1ccccc1Oc1nccn2c(=O)n(CC(=O)Nc3ccc(Cl)c(Cl)c3)nc12
4,722,COc1ccc(NC(=O)c2ccc3nc(-c4ccccc4)cn3c2)c(OC)c1
5,869,COc1ccccc1CC(=O)Nc1ccc(-c2nc(Cn3cccn3)c(C)o2)cc1
6,640,CCOCC(=O)N1CCC(Oc2nccnc2N2CCOCC2)C1 (centres undefined)
7,748,CN1C(=O)C2(CCN(C(=O)Nc3ccc4c(c3)OCCO4)C2)c2ccccc21 (centres undefined)
8,798,CC(=O)c1cccc(NC(=O)CN(C)c2nc3c(F)cccc3s2)c1
9,875,O=C(C1=NN(Cc2cccc(F)c2)c2ccc(Cl)cc2S1(=O)=O)N1CCOCC1
10,1070,O=C(Nc1ccccc1Cl)C(=O)c1cn(CC(=O)N2CCCC2)c2ccccc12
11,1200,COc1ccccc1-c1nc2n(n1)C1(CCCCC1)[C@@H]1CCCC[C@@H]1N2C(=O)c1ccco1
12,618,CNC(=O)[C@@H]1CN(C(=O)Cn2nc(C(F)(F)F)cc2C)C[C@H]1c1n[nH]c(C)n1
13,812,O=C(Nc1ccccc1)C(=O)c1ccc[nH]1
14,730,CC(C)S(=O)(=O)N1CCC(c2noc(-c3cccnc3)n2)C1 (centres undefined)
15,684,c1ccc(-c2noc(-c3ccccc3OC3CCNC3)n2)cc1 (centres undefined)
16,578,O=C(C1CCCO1)N1CCC(Cc2nncn2CC2CC2)CC1 (centres undefined)
17,569,O=C(CCc1nnc2ccc(NCc3ccco3)nn12)N1CCN(c2ccccn2)CC1
18,731,Cc1ccc(NC(=O)c2[nH]c3cc(C)sc3c2CN2CCOCC2)c(Cl)c1
19,885,Cc1ccc(C2Cn3cnc(C(=O)N4CCC(C(=O)NCC5CCCCC5)CC4)c3CO2)cc1 (centres undefined)
20,712,O=C(Cn1c(=O)oc2ccccc21)N1CCC(c2noc(-c3ccncc3)n2)C1 (centres undefined)
21,933,Fc1cccc(CNc2nnc(-c3nnc(C4CC4)o3)c3ccccc23)c1
22,620,CCCNC(=O)C1CCN(c2cncnc2N2CCCCC2)CC1

row,SMILES,RP-LC retention time [s]
1,c1ccc2sc(C3(N4CCCC4)CCCCC3)cc2c1,799
